Laboratory results taken from patent publication US20100184809A1, “Heterocyclic FXR Binding Compounds” (PHENEX PHARMACEUTICALS AG, priority 2006, published 2010).
Values after ≈ are worked out from the molar mass of the structure shown.

Tests used:
[1] = Aqueous solubility assay, Protocol B, shake-flask method; format: physicochemical; conditions: aqueous buffer, 10 mM PBS buffer pH 7.4, 1% MeOH, room temperature, read-out: Aqueous solubility pH 7.4 (μM) (±standard deviation), shake-flask method
Description: Protocol B, shake-flask method:
Sample preparation: Sample and standard solution preparation is performed by mixing equal volumes of acetonitrile containing the internal standard (1 μM final concentration) with sample and calibration standard solutions (100 μl). After vigorously shaking (10 seconds) the samples are centrifuged (6000 g) for 5 minutes at 20° C. Aliquots of the particle-free supernatants are transferred to 200 μl sample vials and subsequently subjected to LC-MS/MS. Assay procedure: Test concentration was 100 μM in 10 mM PBS buffer pH 7.4 with a final MeOH concentration of 1%. The volume of the incubation solution was 500 μl. Depending on each compound's solubility in MeOH, the stock concentration and the incubation concentration was adapted. The test solutions in quadruplicates were shaken at 300 rpm over a 20 hours period at room temperature, followed by centrifugation at 20000 g for 30 minutes to separate the solid phase. 100 μl of particle free sample are added to 100 μl acetonitrile containing the internal standard. The aqueous solubility of the compounds was determined by measuring the concentration of the PBS buffer supernatant by HPLC-MS/MS.

[2] = Pharmacokinetic parameters in C57BL/6 mice (plasma concentration after peroral gavage); format: in vivo; conditions: mouse, oral, perorally by gavage 10 mg/kg, male C57BL/6 mice, read-out: mean plasma conc.
Description: Information on the rate and extent of absorption of the test compounds were generated using two distinct animal models, C57/BI/6J and C57/BLKS/J(mLepr^db/db) mice. Compounds were applied perorally by gavage at 10 mg/kg each to male 8 weeks old C57BL/6 mice and plasma concentrations of the test items were determined by LC-MS/MS (Table 11). Alternatively, compounds were applied perorally by gavage at 25 mg/kg each to 16 weeks old male C57/BLKS/J(mLepr^db/db) mice and plasma concentrations of the test items were determined 120 min after gavage by LC-MS/MS (Table 12).
A solution of 20 mg/ml of each test item was produced by diluting them in the vehicle, 30% HPBCD (hydroxypropyl-beta-cyclodextrin) in 20 mM phosphate buffer pH7.0 (v/w). These solutions were stirred overnight at room temperature and heated to 60° C. for 10 minutes, resulting in a full solubilization. The application was performed by administrating the solution perorally to the mice, with an application volume of 10 ml/kg. For each time point five mice were used. Blood samples were obtained by sacrificing animals for each time point followed by cardiac puncture. Blood samples were treated with Li-heparin during collection procedure and stored on ice until centrifugation at 645 g (5 min, 4° C.). Plasma was harvested and kept at −20° C. until being assayed. To 50 μl of mouse plasma sample 6 μl acetonitrile containing an internal standard was added. Samples were vigorously shaken and centrifuged for 10 minutes at 6000 g and 20° C. An aliquot of the particle-free supernatant was transferred to 200 μl sampler vials and subsequently subjected to LC MS/MS for quantification.

[3] = Mouse microsomal stability assay; format: in vitro ADME; conditions: pH 7.4; mouse liver microsomes, 37° C.
Description: In vitro assays were performed to evaluate the metabolic stability of test items in liver microsomes originating from mouse. Preparation of working standards of test items: Working solutions were prepared for each calibration level by appropriate dilution of the corresponding stock solution, depending on each compound's solubility in acetonitrile or acetonitrile/water. Calibration standards were prepared by spiking 196 μl standard matrix with 4 μl of the corresponding working solution. The standard matrix consists of 0.15 mg/ml of microsomal protein in phosphate buffer (100 mM pH 7.4), the final standard solutions contain 2% acetonitrile. The samples and standard solutions were extracted with ethyl acetate, isolation of the compounds was performed by addition of 600 μl ethyl acetate containing the internal standard (0.1 μM) to 200 μl sample and calibration standard. After vigorously shaking (10 minutes) and centrifugation (5000 g) the aqueous phase was separated by freezing in an acetone/dry ice bath and the organic phase is evaporated to dryness using a vacuum centrifuge. Samples were reconstituted in 200 μl acetonitrile/water mix (1:1 v/v) and subsequently subjected to LC-MS/MS. The incubation solution (180 μl) consisted of 90 μl of a microsomal suspension of 0.33 mg/ml of protein in phosphate buffer 100 mM pH 7.4 and 90 μl NADP-regenerating system. The reaction was initiated by the addition of 20 μl of test compound (in 20% acetonitrile) to the preincubated microsomes/buffer mix at 37° C. 200 μl samples were removed from the incubation after 0, 5, 10, and 30 minutes and processed for ethyl acetate extraction as described above. Negative controls using boiled microsomes (boiling water bath, 25 minutes) without regenerating system were run in parallel. The amount of compound in the samples is expressed as percentage of remaining compound compared to time point zero (=100%). These percentages were plotted against the corresponding time points. Intrinsic clearance (CLint) and half-life (t1/2) estimates were determined using the rate of parent disappearance and following formula (1) and (2). (1) CLint=(−k)×V×fu. (2) t1/2=In2/−k. Where CLint=intrinsic clearance [μl/min/mg protein], t1/2=half life [min], k=slope from the linear regression of log [test compound] versus time plot [1/min]. V=6666.7; fu=unbound fraction in the blood. Applying this protocol gave microsomal stabilities for examples and reference compounds as listed below in Table 9: […]

solubility at 20 h [1] [µM]	concentration at 15 min [2] [ng/mL]	concentration at 45 min [2] [ng/mL]	half-life [3] [min]	microsomal CLint [3] [µL/min/mg]	melting point [°C]	SMILES
17.7 (≈ 9.61 µg/mL)	1600	1650	–	–	–	CC(C)c1onc(-c2c(Cl)cccc2Cl)c1COc1ccc(/C=C/c2cccc(C(=O)O)c2)c(Cl)c1 [Compound B, reference compound]
–	1780	2230	38	120	96.1 to 97.1	CC(C)c1onc(-c2c(Cl)cccc2Cl)c1COc1ccc(N(C)Cc2ccc(C(=O)O)cc2)c(C(F)(F)F)n1 [Example 28, 4(((6-((3-(2,6-Dichlorophenyl)-5-isopropylisoxazol-4-yl)methoxy)-2-(trifluoromethyl)pyridin-3-yl)(methyl)amino)methyl)benzoic acid]
